Laboratory results published in ChEMBL document CHEMBL5352414 (Eur J Med Chem, 2022).
Active and inactive are the calls of the source. The calls are words filed in the database; no cut-off is given here.

Tests used:
[1] = molecular target: 5-hydroxytryptamine receptor 2A (Rattus norvegicus) (UniProt P14842); experiment: Antagonist activity at 5-HT2A receptor in Wistar rat jugular vein assessed as vasorelaxation of serotonin-induced contraction at 100 uM preincubated for 10 mins followed by serotonin stimulation; format: functional, tissue-based; conditions: filed as antagonist
5-hydroxytryptamine receptor 2A (Rattus norvegicus), sequence (P14842 whole entry): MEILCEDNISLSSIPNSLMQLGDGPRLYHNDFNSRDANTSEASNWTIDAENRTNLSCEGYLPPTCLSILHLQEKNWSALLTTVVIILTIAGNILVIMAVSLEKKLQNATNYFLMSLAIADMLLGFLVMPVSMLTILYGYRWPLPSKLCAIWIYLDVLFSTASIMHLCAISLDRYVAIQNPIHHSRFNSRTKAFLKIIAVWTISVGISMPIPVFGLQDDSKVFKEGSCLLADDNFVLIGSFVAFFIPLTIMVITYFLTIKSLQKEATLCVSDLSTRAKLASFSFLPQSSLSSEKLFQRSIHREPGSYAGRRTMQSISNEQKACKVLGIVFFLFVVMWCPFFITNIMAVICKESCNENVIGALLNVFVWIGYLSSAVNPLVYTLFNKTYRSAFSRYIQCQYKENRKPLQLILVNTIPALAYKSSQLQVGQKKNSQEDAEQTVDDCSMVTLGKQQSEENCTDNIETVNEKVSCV

[2] = molecular target: T1, Voltage-dependent T-type calcium channel subunit alpha-1H (Homo sapiens, UniProt O95180); experiment: Inhibition of human Cav3.2 T-type Ca2+ channel expressed in HEK293 cells assessed as reduction in T-currents at 0.3 uM at -80 mV holding potential by whole cell patch-clamp assay; format: cell-based
[3] = molecular target: D(2) dopamine receptor (Rattus norvegicus) (UniProt P61169); experiment: Displacement of [3H]-spiperone from dopamine D2 receptor in rat brain striatum membrane homogenates at 1 uM incubated for 90 mins; format: cell membranes
D(2) dopamine receptor (Rattus norvegicus), sequence (P61169 whole entry): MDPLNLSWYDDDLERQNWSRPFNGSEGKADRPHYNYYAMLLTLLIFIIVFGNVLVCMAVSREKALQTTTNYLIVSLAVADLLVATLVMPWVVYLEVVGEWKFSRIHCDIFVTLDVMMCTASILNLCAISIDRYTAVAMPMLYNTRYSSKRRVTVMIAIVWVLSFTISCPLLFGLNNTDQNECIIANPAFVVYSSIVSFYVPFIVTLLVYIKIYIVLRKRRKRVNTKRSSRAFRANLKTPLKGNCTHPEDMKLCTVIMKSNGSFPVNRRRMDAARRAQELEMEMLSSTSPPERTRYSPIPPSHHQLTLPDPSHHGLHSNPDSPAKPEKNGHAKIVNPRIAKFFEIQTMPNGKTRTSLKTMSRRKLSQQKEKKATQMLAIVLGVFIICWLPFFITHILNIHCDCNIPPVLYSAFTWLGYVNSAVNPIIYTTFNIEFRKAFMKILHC

[4] = molecular target: T1, Voltage-dependent T-type calcium channel subunit alpha-1H; experiment: Inhibition of human Cav3.2 T-type Ca2+ channel expressed in HEK293 cells assessed as effect on T-currents in response to -20 mV test pulse at -80 mV holding potential by whole cell patch-clamp assay; format: cell-based
[5] = molecular target: Voltage-dependent T-type calcium channel subunit alpha-1G (Homo sapiens, UniProt O43497); experiment: Inhibition of human Cav3.1 T-type Ca2+ channel expressed in HEK293 cells assessed as effect on T-currents in response to -20 mV test pulse at -80 mV holding potential by whole cell patch-clamp assay; format: cell-based
Voltage-dependent T-type calcium channel subunit alpha-1G, sequence (O43497 whole entry): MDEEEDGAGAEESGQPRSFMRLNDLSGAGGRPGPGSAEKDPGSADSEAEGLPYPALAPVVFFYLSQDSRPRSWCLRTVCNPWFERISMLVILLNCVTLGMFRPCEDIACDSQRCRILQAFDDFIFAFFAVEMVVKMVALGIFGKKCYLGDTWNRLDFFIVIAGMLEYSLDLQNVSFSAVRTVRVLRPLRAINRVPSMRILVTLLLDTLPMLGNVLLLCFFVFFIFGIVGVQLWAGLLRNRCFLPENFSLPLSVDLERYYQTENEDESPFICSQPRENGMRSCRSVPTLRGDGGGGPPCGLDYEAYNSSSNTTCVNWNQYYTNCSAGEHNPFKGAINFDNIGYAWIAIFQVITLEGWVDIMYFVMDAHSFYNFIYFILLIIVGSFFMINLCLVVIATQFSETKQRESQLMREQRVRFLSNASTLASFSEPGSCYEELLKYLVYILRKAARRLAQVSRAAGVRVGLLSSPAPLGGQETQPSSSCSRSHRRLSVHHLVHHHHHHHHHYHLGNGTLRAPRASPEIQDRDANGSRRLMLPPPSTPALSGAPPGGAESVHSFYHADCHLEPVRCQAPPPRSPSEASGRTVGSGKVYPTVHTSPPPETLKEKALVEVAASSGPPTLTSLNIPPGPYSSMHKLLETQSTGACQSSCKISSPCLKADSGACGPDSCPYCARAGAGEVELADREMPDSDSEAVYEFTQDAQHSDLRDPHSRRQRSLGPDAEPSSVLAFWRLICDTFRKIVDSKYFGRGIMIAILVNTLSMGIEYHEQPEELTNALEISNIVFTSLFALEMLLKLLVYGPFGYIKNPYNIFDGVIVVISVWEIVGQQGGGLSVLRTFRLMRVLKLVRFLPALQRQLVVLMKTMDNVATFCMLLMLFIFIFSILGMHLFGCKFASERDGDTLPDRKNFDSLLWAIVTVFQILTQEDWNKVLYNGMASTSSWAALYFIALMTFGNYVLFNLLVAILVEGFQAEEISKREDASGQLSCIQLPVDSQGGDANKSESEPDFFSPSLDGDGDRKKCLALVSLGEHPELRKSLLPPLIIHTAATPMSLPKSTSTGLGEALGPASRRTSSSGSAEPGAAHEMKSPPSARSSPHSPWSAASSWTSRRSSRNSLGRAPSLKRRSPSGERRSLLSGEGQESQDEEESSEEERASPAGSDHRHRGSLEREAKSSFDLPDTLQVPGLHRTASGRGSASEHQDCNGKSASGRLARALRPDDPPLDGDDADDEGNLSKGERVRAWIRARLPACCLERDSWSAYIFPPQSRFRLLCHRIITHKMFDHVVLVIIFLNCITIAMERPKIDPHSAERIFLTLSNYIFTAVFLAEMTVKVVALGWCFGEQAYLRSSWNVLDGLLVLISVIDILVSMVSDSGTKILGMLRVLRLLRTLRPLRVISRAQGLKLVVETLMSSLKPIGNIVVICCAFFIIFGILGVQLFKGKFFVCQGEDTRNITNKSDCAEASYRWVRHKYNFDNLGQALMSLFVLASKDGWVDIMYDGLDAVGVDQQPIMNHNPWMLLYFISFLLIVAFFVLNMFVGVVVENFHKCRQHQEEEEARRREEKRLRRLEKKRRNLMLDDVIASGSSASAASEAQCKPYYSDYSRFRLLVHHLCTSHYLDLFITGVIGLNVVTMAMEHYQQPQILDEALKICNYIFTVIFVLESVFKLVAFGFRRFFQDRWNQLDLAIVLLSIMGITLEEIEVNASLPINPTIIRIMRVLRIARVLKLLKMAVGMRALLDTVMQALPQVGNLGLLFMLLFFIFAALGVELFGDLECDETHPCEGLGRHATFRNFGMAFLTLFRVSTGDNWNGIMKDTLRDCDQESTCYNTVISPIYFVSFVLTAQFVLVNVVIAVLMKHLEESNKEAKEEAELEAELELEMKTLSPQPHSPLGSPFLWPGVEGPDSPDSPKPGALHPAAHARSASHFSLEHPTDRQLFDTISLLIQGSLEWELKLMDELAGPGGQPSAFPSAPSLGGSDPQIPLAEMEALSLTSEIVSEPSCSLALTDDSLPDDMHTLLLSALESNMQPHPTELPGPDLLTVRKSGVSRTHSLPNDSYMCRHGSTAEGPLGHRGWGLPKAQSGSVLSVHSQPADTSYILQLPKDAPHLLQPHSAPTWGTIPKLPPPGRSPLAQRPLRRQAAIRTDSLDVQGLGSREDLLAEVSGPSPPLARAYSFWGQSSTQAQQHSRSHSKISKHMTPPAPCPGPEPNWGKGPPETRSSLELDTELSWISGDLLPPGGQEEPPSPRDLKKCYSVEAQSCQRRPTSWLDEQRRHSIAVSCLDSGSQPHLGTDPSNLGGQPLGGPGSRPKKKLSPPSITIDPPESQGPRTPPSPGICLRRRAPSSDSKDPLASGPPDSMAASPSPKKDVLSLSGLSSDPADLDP

[6] = Half life in mouse at 10 mg/kg, ip measured for 24 hrs by LC-MS/MS analysis; format: ADME, organism-based; conditions: in vivo
[7] = Antagonist activity at 5-HT1 receptor (unknown origin); set-up: species or system Homo sapiens
[8] = molecular target: 5-hydroxytryptamine receptor 2A (Rattus norvegicus) (UniProt P14842); experiment: Antagonist activity at 5-HT2A receptor in Wistar rat jugular vein assessed as vasorelaxation of serotonin-induced contraction at 10 uM preincubated for 10 mins followed by serotonin stimulation; format: functional, tissue-based
[9] = test system: Mus musculus; experiment: Antinociceptive activity in Na2S induced colonic pain mouse model at 0.03 to 0.5 mg/kg, ip pretreated for 30 mins followed by intra-colonic administration of Na2S and measured for 30 mins by von frey test; format: functional, organism-based; conditions: dose 0.03-0.5 mg/kg, time 60.0 min
[10] = test system: Mus musculus; experiment: Antinociceptive activity in Na2S induced referred hyperalgesia mouse model at 0.03 to 0.5 mg/kg, ip pretreated for 30 mins followed by intracolonic administration of Na2S and measured for 30 mins by von frey test; format: functional, organism-based; conditions: dose 0.03-0.5 mg/kg, time 60.0 min
[11] = Toxicity in mouse assessed as catelepsy at 8 nmol per mouse, icv measured for 180 mins by bar test; conditions: in vivo, icv_or_intrathecal, 3 h
[12] = Toxicity in mouse assessed as catelepsy at 0.3 to 1 mg/kg, ip measured for 300 mins by bar test; format: organism-based; conditions: in vivo, 5 h, dose 0.3-1 mg/kg
[13] = Toxicity in mouse assessed as impairment of neuromuscular coordination by measuring shortened latency to fall at 1 mg/kg, ip measured after 60 to 90 mins by rota-rod test; format: organism-based; conditions: in vivo, time 60-90 min
[14] = molecular target: T1, Voltage-dependent T-type calcium channel subunit alpha-1H; experiment: Inhibition of human Cav3.2 T-type Ca2+ channel expressed in HEK293 cells assessed as effect on T-currents in response to -20 mV test pulse at -110 mV holding potential by whole cell patch-clamp assay; format: cell-based
[15] = Toxicity in mouse assessed as catelepsy at 10 mg/kg, ip measured for 300 mins by bar test; format: organism-based; conditions: in vivo, 5 h
[16] = Toxicity in mouse assessed as impairment of neuromuscular coordination by measuring shortened latency to fall at 10 mg/kg, ip measured after 60 to 90 mins by rota-rod test; format: organism-based; conditions: in vivo, time 60-90 min
[17] = molecular target: D(2) dopamine receptor (Rattus norvegicus) (UniProt P61169); experiment: Displacement of [3H]-spiperone from dopamine D2 receptor in rat brain striatum membrane homogenates at 10 uM incubated for 90 mins; format: cell membranes

Question: Which Activity [1] does the source give for `COC(=O)[C@@H](N)CCCNC(=N)N[N+](=O)[O-]` here?
Answer: Active

Question: Which inhibition [2] does the source give for `O=c1n(CCCCc2ccccc2)c2ccccc2n1C1CCN(CCCCc2cccc(F)c2)CC1` here?
Answer: Active

Question: What about the Activity [3] of the same compound?
Answer: inactive

Question: What about the IC50 [4] of the same compound?
Answer: 0.151 µM

Question: What about the IC50 [5] of the same compound?
Answer: 0.211 µM

Question: Which results are given for `O=c1[nH]c2ccccc2n1C1CCN(CCCC(c2ccc(F)cc2)c2ccc(F)cc2)CC1` [PIMOZIDE]?
Answer: IC50 [5]: 0.307 µM; half-life [6]: 2.47 h; IC50 [7]: 2.44 µM; Activity ([8]; filed as antagonist): Active; Activity [9]: Active; Activity [10]: Active; Activity [11]: Toxic; Activity [12]: Toxic; Activity [13]: Toxic

Question: Which inhibition [2] does the source give for `COc1ccccc1CCCCN1CCC(n2c(=O)n(CCCCc3ccccc3OC)c3ccccc32)CC1` here?
Answer: Active

Question: What about the Activity [3] of the same compound?
Answer: inactive

Question: For `O=c1n(CCCCc2ccccc2)c2ccccc2n1C1CCN(CCCCc2ccccc2F)CC1`, which inhibition [2] is on record?
Answer: Active

Question: What about the Activity [3] of the same compound?
Answer: inactive

Question: Which inhibition [2] does the source give for `O=c1n(CCCCc2ccccc2Cl)c2ccccc2n1C1CCN(CCCCc2ccccc2)CC1` here?
Answer: Active

Question: And the Activity [3]?
Answer: inactive

Question: With `O=c1n(CCCCc2cccc(F)c2)c2ccccc2n1C1CCN(CCCCc2cccc(F)c2)CC1` as the compound, how does the inhibition [2] read?
Answer: Active

Question: And the Activity [3]?
Answer: inactive

Question: And the IC50 [4]?
Answer: 0.093 µM

Question: What about the IC50 [14] of the same compound?
Answer: 1.11 µM

Question: What about the IC50 [5] of the same compound?
Answer: 0.217 µM

Question: And the half-life [6]?
Answer: 2.42 h

Question: What about the Activity [8] of the same compound?
Answer: inactive

Question: And the Activity [11]?
Answer: Non-Toxic

Question: What about the Activity [15] of the same compound?
Answer: Non-Toxic

Question: What about the Activity [16] of the same compound?
Answer: Non-Toxic

Question: Which results are given for `COc1ccccc1CCCCN1CCC(n2c(=O)n(CCCCc3ccccc3)c3ccccc32)CC1`?
Answer: inhibition [2]: Active; Activity [3]: inactive; Activity [17]: inactive

Question: For `O=c1n(CCCCc2ccccc2)c2ccccc2n1C1CCN(CCCC(c2ccc(F)cc2)c2ccc(F)cc2)CC1`, which inhibition [2] is on record?
Answer: inactive

Question: What about the Activity [3] of the same compound?
Answer: inactive

Question: Which inhibition [2] does the source give for `O=C(CCCc1ccccc1)N1CCC(n2c(=O)n(CCCCc3ccccc3)c3ccccc32)CC1` here?
Answer: Active

Question: And the Activity [3]?
Answer: inactive

Question: What about the Activity [17] of the same compound?
Answer: inactive

Question: What about the IC50 [5] of the same compound?
Answer: 0.24 µM

Question: What about the Activity [11] of the same compound?
Answer: Non-Toxic

Question: What about the Activity [15] of the same compound?
Answer: Non-Toxic

Question: And the Activity [16]?
Answer: Non-Toxic

Question: Which inhibition [2] does the source give for `O=c1n(CCCCc2ccccc2)c2ccccc2n1C1CCN(CCCCc2ccccc2)CC1` here?
Answer: Active

Question: What about the Activity [3] of the same compound?
Answer: inactive

Question: What about the Activity [17] of the same compound?
Answer: inactive

Question: And the IC50 [5]?
Answer: 0.209 µM

Question: And the Activity [11]?
Answer: Non-Toxic

Question: What about the Activity [15] of the same compound?
Answer: Non-Toxic

Question: What about the Activity [16] of the same compound?
Answer: Non-Toxic

Question: With `COc1ccc2c(c1)c(CC(=O)O)c(C)n2C(=O)c1ccc(Cl)cc1` as the compound, how does the Activity ([8]; filed as antagonist) read?
Answer: Active

Question: For `COc1ccccc1CCCCn1c(=O)n(C2CCN(CCCCc3ccccc3)CC2)c2ccccc21`, which inhibition [2] is on record?
Answer: Active

Question: What about the Activity [3] of the same compound?
Answer: inactive

Question: With `O=c1n(CCCCc2ccccc2)c2ccccc2n1C1CCN(CCCOc2ccccc2)CC1` as the compound, how does the inhibition [2] read?
Answer: Active

Question: And the Activity [3]?
Answer: inactive

Question: And the Activity [17]?
Answer: inactive
